Here are results for 10 molecules from patent publication US20060079453A1, “Hla binding peptides and their uses” (priority 2002, published 2006).

pIC50: −log10 of the molar value. No end group written: not given here.

Common to all, as to experiment: biochemical
What all share (type): binding

Assay [1] has as its target HLA-DR DRB1*0101 (DR1) (Homo sapiens, UniProt P01903+P01911, A100R/D57E/F55L/F60I/F76Y/I96L/L162R/M171V/P40L/Q125E/R42F/V115G/Y59C). As to conditions: DRB1 *0101.
Assay [2] has as its target HLA-DR DRB1*0301 (DR3) (Homo sapiens, UniProt P01903+P01911, A100K/A102G/A103R/A169T/F55Y/I96L/K41T/L162R/M171V/P40S/Q125H/Q178H/Q39Y/R42S/S66N/T106N/T262R/W38E/Y61H).
Assay [3] deals with HLA-DR DRB3*0101 (DR52) (Homo sapiens, UniProt P01903+P79483).
The target in assay [4] is HLA-DR DRB1*0901 (DR9) (Homo sapiens, UniProt P01903+P01911, A100R/A103E/D57H/D86V/F55Y/F60I/F76Y/I96F/K127E/L162R/M171V/P40D/Q125H/Q99R/R33Q/R42F/S133A/S66N/T210M/V115G/W38K/Y107V/Y59G/Y89S). The settings on record: DRB1 *0901.
Assay [5] addresses HLA-DR DRB1*1302 (DR13) (Homo sapiens, UniProt P01903+P01911, A100E/A169T/K41T/L162R/M171V/P40S/Q125H/Q178H/Q39Y/Q99D/R42S/S66N/T262R/V115G/W38E/Y61H). The settings on record: DRBI *1302.
The target of assay [6] is HLA-DR DRB1*0401 (DR4) (Homo sapiens, UniProt P01903+P01911, A100K/A169T/F76Y/I96L/K127E/L162R/M171V/N62H/P40V/Q125Y/R42H/S133A/S149N/S66Y/V115G/V209L/W38E). The settings on record: DRB1 *0401.
The target of assay [7] is HLA-DR DRB1*1101 (DR11) (Homo sapiens, UniProt P01903+P01911, A100R/A169T/A87E/I96F/K41T/L162R/M171V/P40S/Q125H/Q178H/Q39Y/Q99D/R42S/S66Y/T262R/V115G/W38E). As to conditions: DRB1 *1101.
In assay [8] the target is HLA-DR DRB1*0701 (DR7) (Homo sapiens, UniProt P01903+P01911, A100R/A102G/A103Q/D57E/D86V/E43K/F76Y/K127E/L162R/M171V/P40G/Q125H/Q99D/R33Q/R42Y/R54Q/S133A/S66F/T210M/V115G/Y107V/Y59L/Y89S). The settings on record: DRB1 *0701.
The target in assay [9] is HLA-DR DRB1*1501 (DR15) (Homo sapiens, UniProt P01903+P01911). The settings on record: DRBI *1501.
The target of assay [10] is HLA-DR DRB5*0101 (DR51) (Homo sapiens, UniProt P01903+Q30154). The settings on record: DRB5 *0101.
The target in assay [11] is HLA-DR DRB1*0802 (DR8) (Homo sapiens, UniProt P01903+P01911, A100R/A103L/A169T/F76Y/H45Y/I96F/K41T/L162R/M171V/P40S/Q125H/Q178H/Q39Y/Q99D/R218S/R42G/S66Y/V115G/W38E).
The target in assay [12] is HLA-DR DRB4*0101 (DR53) (Homo sapiens, UniProt P01903+P13762, G164S). The settings on record: DRB4 *0101.

Chain of HLA-DR DRB1*0301 (DR3) (P01903 26-254 limits assumed, other chains not shown): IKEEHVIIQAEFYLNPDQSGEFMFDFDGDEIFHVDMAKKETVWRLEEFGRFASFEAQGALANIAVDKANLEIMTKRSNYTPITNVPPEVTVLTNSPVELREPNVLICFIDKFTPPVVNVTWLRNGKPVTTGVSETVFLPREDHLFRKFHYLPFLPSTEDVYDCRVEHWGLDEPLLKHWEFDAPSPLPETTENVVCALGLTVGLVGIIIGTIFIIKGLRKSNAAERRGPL
Chain of HLA-DR DRB1*1101 (DR11) (P01903 26-254 limits assumed, other chains not shown): as above
Chain of HLA-DR DRB1*1302 (DR13) (P01903 26-254 limits assumed, other chains not shown): as above

One may read the pIC50 as the IC50 on a negative log10 scale, so that one unit is a factor of ten. A lower pIC50 goes with a large IC50. Consider `CSCC[C@H](NC(=O)CNC(=O)CNC(=O)[C@H](CCCNC(=N)N)NC(=O)[C@@H](NC(=O)[C@H](CCC(N)=O)NC(=O)[C@H](C)NC(=O)[C@@H](NC(=O)[C@@H](NC(=O)[C@H](CC(C)C)NC(=O)[C@H](Cc1c[nH]cn1)NC(=O)[C@H](Cc1ccc(O)cc1)NC(=O)[C@@H](N)CCCCN)[C@@H](C)O)C(C)C)C(C)C)C(=O)N[C@H](C(=O)N[C@@H](Cc1ccccc1)C(=O)O)C(C)C`, for which the pIC50 was 6.86 in [1]; 4.47 in assay [2]; below 4.66 in assay [3]; 5.23 in assay [4]; 6.71 in assay [5]; 6.09 in assay [6]. Also, the negative-log IC50 (pIC50) in [7] is 6.07; in [8], 6.64; in assay [9], 5.91; in assay [10] it was 7.07; in [11], 5.82.
Take TSITSLYQLENYTN: the pIC50 was 4.09 in assay [2]; below 4.02 in assay [3]; 5.00 in [4]; below 4.77 in assay [5]; 5.96 in assay [7]; 5.22 in assay [8]. Moreover, the negative-log IC50 (pIC50) in assay [9] is 7.00; in assay [10], 5.22; in assay [11], 4.57.
Regarding `CC[C@H](C)[C@H](NC(=O)[C@@H]1CCCN1)C(=O)N[C@@H](CC(C)C)C(=O)N[C@@H](CC(C)C)C(=O)N[C@@H](Cc1c[nH]c2ccccc12)C(=O)N[C@@H](CCC(N)=O)C(=O)N1CCC[C@H]1C(=O)N[C@H](C(=O)N1CCC[C@H]1C(=O)N[C@H](C(=O)N[C@@H](Cc1c[nH]cn1)C(=O)N[C@H](C(=O)N[C@H](C(=O)N1CCC[C@H]1C(=O)N[C@@H](CC(C)C)C(=O)O)C(C)C)[C@@H](C)O)C(C)C)[C@@H](C)CC`, the pIC50 was 7.36 in assay [1]; below 4.09 in assay [2]; below 5.05 in assay [3]; 6.77 in assay [4]; 6.25 in [5]; 6.59 in assay [6]. Moreover, the pIC50 is 5.39 in [7]; 7.34 in assay [8]; 8.16 in assay [9]; 4.38 in assay [10]; 4.67 in assay [11].
For the molecule `CSCC[C@H](NC(=O)[C@H](CC(C)C)NC(=O)[C@@H]1CCCN1C(=O)[C@@H](NC(=O)[C@H](CS)NC(=O)[C@H](CC(=O)O)NC(=O)[C@@H](NC(=O)[C@H](CCCNC(=N)N)NC(=O)[C@H](CC(C)C)NC(=O)[C@@H](NC(=O)[C@H](Cc1ccc(O)cc1)NC(=O)[C@@H](N)CC(N)=O)[C@@H](C)O)C(C)C)[C@@H](C)O)C(=O)N[C@@H](Cc1ccc(O)cc1)C(=O)N[C@@H](CO)C(=O)N[C@@H](CC(C)C)C(=O)O`, the pIC50 in [1] was 5.17; in [2], 7.35; in [3], 7.60; in assay [4], 4.32; in [5], 8.05; in assay [6] it was 8.00. Moreover, the negative-log IC50 (pIC50) in assay [7] is 5.15; in assay [8], 4.61; in [9], 5.30; in assay [10], 4.18; in assay [11], 5.20.
Take `CC[C@H](C)[C@H](NC(=O)[C@H](Cc1c[nH]c2ccccc12)NC(=O)[C@@H](NC(=O)[C@@H](NC(=O)[C@H](CO)NC(=O)[C@H](CC(C)C)NC(=O)[C@@H](N)[C@@H](C)O)C(C)C)[C@@H](C)O)C(=O)NCC(=O)N[C@@H](C)C(=O)N[C@@H](C)C(=O)N1CCC[C@H]1C(=O)N[C@@H](CC(C)C)C(=O)N[C@H](C(=O)N[C@@H](CC(C)C)C(=O)N[C@@H](CO)C(=O)O)[C@@H](C)CC`: the negative-log IC50 (pIC50) in assay [1] is 8.51; in assay [2], below 4.09; in assay [3], 5.22; in [4], 8.27; in [5], 6.19; in [7], 5.16. The negative logarithm of the IC50 (pIC50) in [8] was 7.80; in [9], 7.01; in assay [10] it was 7.51; in assay [11], 6.08.
Consider `CC[C@H](C)[C@H](NC(=O)[C@@H](NC(=O)[C@H](Cc1c[nH]cn1)NC(=O)[C@@H](N)CC(C)C)C(C)C)C(=O)N[C@@H](CO)C(=O)N[C@@H](CC(N)=O)C(=O)N[C@@H](CC(=O)O)C(=O)N[C@H](C(=O)N[C@@H](CS)C(=O)N[C@@H](C)C(=O)N[C@@H](CCC(N)=O)C(=O)N[C@H](C(=O)N[C@@H](Cc1c[nH]cn1)C(=O)N1CCC[C@H]1C(=O)N[C@@H](CCC(N)=O)C(=O)O)C(C)C)C(C)C`, for which the negative logarithm of the IC50 (pIC50) in assay [1] is 6.10; in assay [12], 5.96; in assay [2], 5.08; in [3], 5.72; in assay [4], 4.49; in assay [6] it was 6.10. Moreover, the pIC50 in assay [7] was below 4.30; in [8], 4.76; in [9] it was 4.64; in assay [10], below 3.70; in [11], below 3.91.
With TTLLRALGAQKEAIS, the pIC50 in assay [1] was 7.72; in [2] it was 3.97; in assay [3], 4.48; in assay [4], 5.34; in [5], 5.82; in assay [6], 6.47. Further, the negative logarithm of the IC50 (pIC50) in assay [7] was 6.07; in [8], 5.37; in [9] it was 7.05; in assay [10] it was 7.68; in assay [11], 6.19.
Consider `CSCC[C@H](NC(=O)[C@H](CC(C)C)NC(=O)[C@H](CCC(N)=O)NC(=O)[C@H](CC(=O)O)NC(=O)[C@H](CC(N)=O)NC(=O)[C@H](CCSC)NC(=O)[C@H](CCSC)NC(=O)[C@H](CCCNC(=N)N)NC(=O)[C@H](CC(C)C)NC(=O)[C@@H](N)C(C)C)C(=O)N[C@@H](Cc1ccccc1)C(=O)N[C@@H](CC(C)C)C(=O)N[C@@H](CCC(=O)O)C(=O)N[C@@H](CCCNC(=N)N)C(=O)N[C@@H](C)C(=O)O`, for which the negative logarithm of the IC50 (pIC50) in [12] was 7.06; in assay [2], 6.74; in [3], 7.01; in assay [4], 4.97; in assay [5], 6.89; in [6], 7.54. For the same molecule, the negative-log IC50 (pIC50) in assay [7] was 5.63; in [9], 6.90; in assay [10], 7.07; in assay [11], 5.77.
On to LTELYFEKGEYFVEM, for which the negative logarithm of the IC50 (pIC50) in assay [12] was 6.22; in [2], 6.23; in [3], 6.91; in [4], 4.57; in assay [5], 5.50; in [6], 5.09. The negative-log IC50 (pIC50) is below 4.72 in assay [7], below 5.63 in assay [9], 5.18 in [10] and 4.72 in assay [11].
As for ITDSRVLERYLLEAK, the pIC50 is 5.80 in assay [1]; 5.19 in assay [2]; below 4.37 in [3]; below 4.10 in [4]; below 4.83 in [5]; 5.89 in assay [6]. Moreover, the pIC50 is 5.28 in assay [7], 5.13 in [8], 7.74 in assay [9] and 6.01 in [11].
